Patent US20070010459A1, “Application of asiatic acid and its derivatives to treat pulmonary fibrosis” (priority 2005, published 2007)
Values after ≈ are worked out from the molar mass of the structure shown. Each block holds one compound with its values, some of them ahead of it.

What was measured:
[1] = tested on: primary culture of mice fibroblast; assay: bFGF-stimulated proliferation of primary fibroblast culture; format: cell-based; conditions: tested at 25, 12.5, 6.25, 3.125 or 1.56 μg
Experimental: Using bFGF (0.5 µg/ml), the proliferation of primary culture of mice fibroblast with the presence of asiaticoside or asiatic acid at 25, 12.5, 6.25, 3.125 or 1.56 μg respectively was assessed.

[2] = tested on: pulmonary fibrosis induced by bleomycin in rat; assay: Asiatic acid in bleomycin-induced pulmonary fibrosis rat model; format: in vivo, SD male rats; conditions: for Lung CT scanning results: after 28 days; for Lung Weight: mean
Source text: The pulmonary fibrosis animal model was induced by bleomycin in rat according to the methods described by Lazo J S, Hoyt D G, Sebti S M, Pitt B R. in Pharmacol Ther. 1990: 47:347-58. In this article, praquat, bleomycin and amiodrone are three routinely used chemical agent to induce lung fibrosis is rodents, e.g. mice, rat and Chinese hamsters as well as primates, e.g. baboon and cynomolgous monkey etc. there are also reports describing using rabbit or dog as model animal for such study. Different groups were able to generate lung fibrosis in animal models through different administration routes. For example, 3 various pulmonary fibrosis animal models using Co^60 to radiate rat, bleomycin or CCl4 injection into abdominal cavity of mice or rat respectively were generated. […] Specifically, diffusive stromal lung fibrosis model induced by tracheal bleomycin dripping is the most commonly used animal model. The advantage of this method is that the model can be obtained with once bleomycin dripping without repeated venous or abdominal injections, therefore limiting the influences to other organs caused by systematic administrations. It also lowers the experimental cost. The development of pulmonary fibrosis from alveolitis can be observed in 4 weeks, which is very similar to the pulmonary fibrosis pathological development in human being.
1. Animal: SD male rats with weight raging between 200-250 g, purchased from SLAC.
3. Dosage: Asiatic acid, 3, 9, […], po for 28 days.
Male SD rats were lay down flat on operating table and anesthetize with 3% Secobarbital. The trachea was exposed after sterilization of cervical part with alcohol. The needle was then inserted into tracheal cartilage interspace. Bleomycin at 5 mg/kg was dipped in. Afterwards, the rats were reared to evenly distribute bleomycin in the lung. The trachea was then sutured. […] The regimen was initiated on the second day. Sham-operated and untreated group received saline. After 28 days of treatment, lung weight, hydroyproline content, pathological section and CT scan were measured or conducted.
After 28 days on asiatic acid, rats were sacrificed and dissected. The body and lung weight were measured respectively and used to calculate lung weigh coefficient.
After 28 days on Asiatic acid, hydroxyproline content in lung was measured. The results are as follows:
After 28 days on asiatic acid, lung CT scans were performed to each group of experimental rats.
After 28 days on asiatic acid, the rats were sacrificed and dissected. Both lungs were harvested. The specimen were embedded and fixed then subjected to HE staining. The focus of infection were observed under microscope with ⅓, ⅔ and 3/3 Vf*10 to conduct semi-quantative analysis.

[3] = background statement, see U.S. Pat. No. 6,417,349; cited from earlier work
[4] = Pharmacokinetics, tissue distribution and excretion of asiaticoside; format: in vivo, rats; conditions: rat, in vivo, 100 mg/kg
Experimental: Three doses of asiaticoside (10, 33, 100 mg/kg) were gavaged to rats (n=6) and canines (n=4). After dosing, blood was sampled up to 120 or 216 hours in rats and canines respectively. Tissue distribution and excretion studies in rats were carried out with the highest dose.
The respective asiaticoside and asiatic acid in the same bio-matrix were detected by LC/MS/MS and GC/MS. Because the secondary peak resembled a plasma concentration-time profile in both rat and canine rather than conventional compartment fitting, statistical moment analysis was used in calculating pharmacokinetic parameters. […] In addition to the targeted organ, both asiaticoside and asiatic acid were distributed in some other organs, which could be the sign to expand clinical indications.

[5] = tested on: radiation pneumonia and subsequent pulmonary fibrosis induced by Cobalt-60 radiation; assay: Pharmacodynamics of asiaticoside in radiation pneumonia induced by Cobalt-60 radiation; format: in vivo, rats; set-up: Type IV (collagen content comparison, serum ECM) / Laminin (serum ECM) / Hyaluronic Acid (serum ECM): unit not given here
Experimental: Radiation pneumonia and subsequent pulmonary fibrosis in rats was induced by Cobalt-60 radiation. The efficacies were assessed by the lung weight coefficient, HXP content, serum ECM measurement, CT scan and pathological examinations.

[6] = tested on: rats with pulmonary fibrosis induced by bleomycin; assay: Pharmacodynamics of asiaticoside in rats with pulmonary fibrosis induced by bleomycin; format: in vivo
Experimental: The rats with lung fibrosis were induced by bleomycin through trachea administration and then treated with asiaticoside. […] The study regimen lasted for 28 days. The lung weight coefficient and hydroyproline (HXP) content were measured on day 2 and 8 after the formation of animal model. CT scan, pathology and serum ECM content measurements were conducted on day 14, 21 and 28 days respectively.

[7] = first experiment, asiatic acid high dose 27 mg/kg po 28 days
[8] = first experiment, asiatic acid low dose 3 mg/kg po 28 days
[9] = first experiment, asiatic acid medium dose 9 mg/kg po 28 days
[10] = second experiment, asiatic acid high dose 27 mg/kg po 28 days
[11] = second experiment, asiatic acid low dose 3 mg/kg po 28 days
[12] = second experiment, asiatic acid medium dose 9 mg/kg po 28 days
[13] = third experiment, asiatic acid high dose 27 mg/kg po 28 days
[14] = third experiment, asiatic acid low dose 3 mg/kg po 28 days
[15] = third experiment, asiatic acid medium dose 9 mg/kg po 28 days
[16] = first experiment, dexmethasone 0.6 mg/kg po 28 days
[17] = second experiment, dexmethasone 0.6 mg/kg po 28 days
[18] = third experiment, dexmethasone 0.6 mg/kg po 28 days
[19] = dexamethasone 0.6 mg/kg daily oral, 28 days

- Tissue accumulation [4]: no apparent tissue accumulation
SMILES: C[C@H]1[C@H](C)CC[C@]2(C(=O)O)CC[C@]3(C)C(=CC[C@@H]4[C@@]5(C)C[C@@H](O)[C@H](O)[C@@](C)(CO)[C@@H]5CC[C@]43C)[C@H]12 [Asiatic acid, asiatic acid]
- IC50 ([1]; Mus musculus, Fibroblast, bFGF, read-out: IC50, growth inhibition of fibroblast treated with bFGF): 137 µg/mL (≈ 280 µM)
- Inhibitory activity on fibroblast proliferation ([1]; bFGF 0.5 g/ml): growth inhibitory roles to fibroblast treated with bFGF to certain extent
- CT: therapeutic effect in acute phase of pulmonary fibrosis ([2]; acute phase): didn't display any therapeutic effects
- Lung CT scanning results ([2]; asiatic acid high dose 27 mg/kg po): Light glass infiltration, part of lobules consolidates.
- Lung CT scanning results ([2]; asiatic acid low dose 3 mg/kg po): Consolidation in lobules, bronchiectasis, honeycomb
- Pathology results (HE staining of lungs) ([2]; asiatic acid high, medium and low dose, 28 days, not dose dependent): light fibroplasias in alveoli pulmonis diaphragm, light lymphocyte infiltration and compensatory emphysema
- Lung weight coefficient [2, 7]: 0.70
- Lung Weight [2, 7]: 2.17 g
- Lung weight coefficient [2, 8]: 0.66
- Lung Weight [2, 8]: 1.97 g
- Lung weight coefficient [2, 9]: 0.66
- Lung Weight [2, 9]: 2.02 g
- HX content (hydroxyproline content in lung) X ± SD ([2]; first experiment, high dose 27 mg/kg po * 28): 2.39 ± 0.44 mg/g
- HX content (hydroxyproline content in lung) X ± SD ([2]; first experiment, low dose 3 mg/kg po * 28): 3.43 ± 0.62 mg/g
- HX content (hydroxyproline content in lung) X ± SD ([2]; first experiment, medium dose 9 mg/kg po * 28): 2.36 ± 0.87 mg/g
- CT: therapeutic effect in mid to late phase of the disease ([2]; mid to late phase): can significantly relive the extent of fibrosis in lungs
- Overall effect on lung fibrosis ([2]; rats receiving bleomycin induction, direct administration): can relieve lung fibrosis
- Lung weight coefficient [2, 10]: 0.65
- Lung Weight [2, 10]: 2.26 g
- Lung weight coefficient [2, 11]: 0.76
- Lung Weight [2, 11]: 2.34 g
- Lung weight coefficient [2, 12]: 0.70
- Lung Weight [2, 12]: 2.21 g
- HX content (hydroxyproline content in lung) X ± SD ([2]; second experiment, high dose 27 mg/kg po * 28): 2.37 ± 0.41 mg/g
- HX content (hydroxyproline content in lung) X ± SD ([2]; second experiment, low dose 3 mg/kg po * 28): 3.41 ± 0.60 mg/g
- HX content (hydroxyproline content in lung) X ± SD ([2]; second experiment, medium dose 9 mg/kg po * 28): 2.36 ± 0.79 mg/g
- Lung weight coefficient [2, 13]: 0.70
- Lung Weight [2, 13]: 2.17 g
- Lung weight coefficient [2, 14]: 0.66
- Lung Weight [2, 14]: 1.97 g
- Lung weight coefficient [2, 15]: 0.66
- Lung Weight [2, 15]: 2.02 g
- HX content (hydroxyproline content in lung) X ± SD ([2]; third experiment, high dose 27 mg/kg po * 28): 2.30 ± 0.46 mg/g
- HX content (hydroxyproline content in lung) X ± SD ([2]; third experiment, low dose 3 mg/kg po * 28): 3.42 ± 0.57 mg/g
- HX content (hydroxyproline content in lung) X ± SD ([2]; third experiment, medium dose 9 mg/kg po * 28): 2.71 ± 0.44 mg/g
- Solubility [3]: insoluble in water

SMILES: C[C@@H]1C[C@H]2[C@@H]3CCC4=CC(=O)C=C[C@]4(C)[C@@]3(F)[C@@H](O)C[C@]2(C)[C@@]1(O)C(=O)CO [Dexmethasone, Dexamethasone, reference compound]
- Lung CT scanning results ([2]; dexmethasone 0.6 mg/kg po): Light hyperplasy in lung striation. Light consolidation
- HX content (hydroxyproline content in lung) X ± SD ([2]; first experiment, 0.6 mg/kg po * 28): 2.34 ± 9.54 mg/g
- Lung weight coefficient [2, 16]: 0.72
- Lung Weight [2, 16]: 1.90 g
- HX content (hydroxyproline content in lung) X ± SD ([2]; second experiment, 0.6 mg/kg po * 28): 2.41 ± 0.45 mg/g
- Lung weight coefficient [2, 17]: 0.69
- Lung Weight [2, 17]: 1.62 g
- HX content (hydroxyproline content in lung) X ± SD ([2]; third experiment, 0.6 mg/kg po * 28): 2.47 ± 0.45 mg/g
- Lung weight coefficient [2, 18]: 0.72
- Lung Weight [2, 18]: 1.90 g
- CT scan findings ([5]; dexamethasone group): mild ground glass infiltration and fibrotic streaks in the right lung with right base atelectasis
- HXP content ([5]; dexamethasone treated): 36.42 ± 2.74 mg/g
- Hyaluronic Acid (serum ECM) ([5]; dexamethasone treated): 195.12 ± 55.89
- Laminin (serum ECM) ([5]; dexamethasone treated): 47.91 ± 8.04
- Lung weight coefficient ([5]; dexamethasone treated): 0.42%
- PIIIP (collagen content comparison, serum ECM) ([5]; dexamethasone treated): 14.51 ± 5.61
- Type IV (collagen content comparison, serum ECM) ([5]; dexamethasone treated): 12.65 ± 2.87
- CT scan findings ([6]; dexamethasone 0.6 mg/kg): ground glass infiltration and fibrotic streaks were found in both lungs
- ET-1 (cytokine content) ([6]; dexamethasone 0.6 mg/kg): 257.86 ± 20.81
- Hyaluronic Acid (serum ECM) ([6]; dexamethasone 0.6 mg/kg): 232.97 ± 101.24
- Laminin (serum ECM) ([6]; dexamethasone 0.6 mg/kg): 48.41 ± 14.12
- PIIIP (collagen content comparison, serum ECM) ([6]; dexamethasone 0.6 mg/kg): 19.59 ± 6.24
- Pathology ([6]; dexamethasone 0.6 mg/kg): a light inflammatory reaction caused by lymphocyte was found with inflammatory cell infiltration seen in the alveoli pulmonis
- TNF-α (cytokine content) ([6]; dexamethasone 0.6 mg/kg): 6.50 ± 0.73
- TNF-[…] (cytokine content) ([6]; dexamethasone 0.6 mg/kg): 0.075 ± 0.010
- Type IV (collagen content comparison, serum ECM) ([6]; dexamethasone 0.6 mg/kg): 10.71 ± 4.94
- HXP content [6, 19]: 19.32 ± 4.35 mg/g
- Lung weight coefficient [6, 19]: 0.72%
